Like-named read-outs stand apart in the source and are kept apart here. Bounds are passed on as bounds.

One series concerns the target AurA (Homo sapiens (Human), UniProt O14965). The experiment in a line: Kinase selectivity (Eurofins Cerep), AurA. The series is classed as biochemical. The settings on record: maximal concentration tested 10 μM. On the procedure: (§1) The assays were performed in Eurofins Cerep (France). The concentration range of the compound under investigation was from 10^−9 M up to 10^−5 M final concentration.

The next series deals with MMP13. The experiment in a line: Gene expression in rat articular chondrocytes under IL-1β stimulation, MMP13. In kind it is cell-based. Particulars: Rattus norvegicus, Chondrocyte; 24 h incubation. The procedure, abridged:
(§2)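 Rat chondrocytes, day 10 post-plating; switched to DMEM GlutaMAX I 0.4%; compound + cytokine 2 ng/ml; 6 h (IL-1β, ADAMTS-5) or 24 h (MMP3, MMP13); total RNA → cDNA → TaqMan qPCR, 18S-normalised.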

A further series relates to IL-1β. The experiment in a line: Gene expression in rat articular chondrocytes under IL-1β stimulation, IL-1β. In kind it is cell-based. The settings on record: Rattus norvegicus, Chondrocyte; 6 h incubation. The essentials:
as §2

For the next series, the target named is human FynB (Homo sapiens, UniProt P06241). The series is described as follows: Inhibition of FynB-induced Tau(Y18)-phosphorylation in HEK293 cells. In kind it is cell-based. The procedure:
After 24 h, cells were transfected in order to over-express either constitutively active form of human FynB and Tau protein (isoform 0N4R), through an optimized Lipofectamine®3000 Transfection protocol (Life Technologies™). A non-transfected sample (negative control) was included in every experiment. Twenty-four hours from transfection, treatments of cells were performed by adding fresh medium containing diluent (DMSO 0.1% final concentration) or test compounds. The incubation was carried out for 6 or 24 hours at 37° C. with 5% CO2. At the end of the incubation, the medium was removed and cellular lysates, obtained by adding M-PER lysis/Protease/Phosphatase inhibitors cocktail, were transferred into Eppendorf tubes, sonicated and stored at −80° C. Protein content was measured by Bradford method. Lysates were analyzed either by customized ELISA assays for Tau phosphorylation (Tyrosine 18 residue—Fyn mediated) and Tau-Total amount determination.

A further series addresses VEGFR (Homo sapiens (Human), UniProt P35968). The experiment in a line: Inhibition of VEGF-induced VEGFR (Y1175)-phosphorylation in HUVEC-C cells. The series is classed as cell-based. Particulars: starting from the concentration of 0.01 μM; VEGF 50 ng/ml.
A further series relates to NF-kB. The experiment in a line: Gene reporter (GR) assay, NF-kB activation after TNFα in JB6 Cl 41-5a (P+) cells. The series is classed as cell-based, murine. The settings on record: TNFα 2 ng/ml, non toxic concentrations, read-out: Gene reporter (GR) inhibition IC50. The procedure, abridged:
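TNFα (2 ng/ml, 4 h) stimulation followed 1 h compound pre-treatment in NF-kB-luciferase-transfected mouse JB6 (P+) epithelial cells. Reporter luminescence and cell viability were read together, each condition in quadruplicate.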

Another series deals with IL-6. The experiment in a line: Gene expression in rat articular chondrocytes under IL-1β stimulation, IL-6. The series is classed as cell-based. The settings on record: Rattus norvegicus, Chondrocyte; 6 h incubation.
Another series deals with COX2. The series is described as follows: Gene expression in rat articular chondrocytes under IL-1β stimulation, COX2. Particulars: Rattus norvegicus, Chondrocyte; 24 h incubation. In kind it is cell-based.
The subject of series [1] is rat primary articular chondrocytes. The experiment in a line: Toxicity analysis (MTT) in rat primary chondrocytes.
Experimental: Purified chondrocytes were resuspended in DMEM glutaMAX 10% and plated in a 96X well plate for toxicity analysis and in a 6X well plate for gene expression analysis.
For toxicity analysis cells were then treated with the different compounds for 24 and 48 h. At the end of the incubation time, the medium was removed and was substituted with a mixture 10:1 of DMEM glutaMAX 10%—MTT (2 mg/ml) for 1 h at 37° C. in the cell incubator. After this incubation, the precipitated salt was dissolved with 100 μl of DMSO and the plate was read at 540 nm. The toxicity analysis were performed to decide the maximal non toxic concentration of each compound used in the gene expression assay.
The target of a further series is CDK2 (Homo sapiens (Human), UniProt P24941). The series is described as follows: Kinase selectivity (Eurofins Cerep), CDK2. In kind it is biochemical. The settings on record: maximal concentration tested 10 μM. The procedure:
as §1

Chain of human FynB (P06241 2-537 limits assumed): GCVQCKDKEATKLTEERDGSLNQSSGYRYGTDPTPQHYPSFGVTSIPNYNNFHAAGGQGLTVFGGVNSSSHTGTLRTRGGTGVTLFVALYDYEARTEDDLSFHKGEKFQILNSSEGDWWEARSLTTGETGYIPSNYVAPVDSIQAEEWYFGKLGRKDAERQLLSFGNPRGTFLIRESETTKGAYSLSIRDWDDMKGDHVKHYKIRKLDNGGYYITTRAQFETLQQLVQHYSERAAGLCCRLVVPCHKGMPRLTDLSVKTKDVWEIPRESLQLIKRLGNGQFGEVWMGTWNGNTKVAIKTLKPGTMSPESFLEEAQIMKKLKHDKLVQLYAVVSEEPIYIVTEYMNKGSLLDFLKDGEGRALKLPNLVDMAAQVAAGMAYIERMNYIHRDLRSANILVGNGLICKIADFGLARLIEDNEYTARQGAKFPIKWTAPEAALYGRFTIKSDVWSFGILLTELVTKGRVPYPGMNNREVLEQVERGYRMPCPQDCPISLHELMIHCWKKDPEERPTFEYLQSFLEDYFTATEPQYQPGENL
Chain of AurA (O14965 whole entry): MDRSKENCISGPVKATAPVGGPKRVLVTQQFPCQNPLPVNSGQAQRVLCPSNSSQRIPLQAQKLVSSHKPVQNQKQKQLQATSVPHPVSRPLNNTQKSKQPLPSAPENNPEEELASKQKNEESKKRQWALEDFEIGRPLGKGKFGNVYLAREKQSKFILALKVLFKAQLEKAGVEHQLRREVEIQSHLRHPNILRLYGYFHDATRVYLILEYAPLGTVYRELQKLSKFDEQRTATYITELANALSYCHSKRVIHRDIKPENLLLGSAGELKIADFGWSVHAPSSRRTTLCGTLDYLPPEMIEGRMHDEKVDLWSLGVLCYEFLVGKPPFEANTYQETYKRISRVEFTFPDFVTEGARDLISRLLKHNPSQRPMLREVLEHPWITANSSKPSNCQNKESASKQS
Chain of VEGFR (P35968 20-1356): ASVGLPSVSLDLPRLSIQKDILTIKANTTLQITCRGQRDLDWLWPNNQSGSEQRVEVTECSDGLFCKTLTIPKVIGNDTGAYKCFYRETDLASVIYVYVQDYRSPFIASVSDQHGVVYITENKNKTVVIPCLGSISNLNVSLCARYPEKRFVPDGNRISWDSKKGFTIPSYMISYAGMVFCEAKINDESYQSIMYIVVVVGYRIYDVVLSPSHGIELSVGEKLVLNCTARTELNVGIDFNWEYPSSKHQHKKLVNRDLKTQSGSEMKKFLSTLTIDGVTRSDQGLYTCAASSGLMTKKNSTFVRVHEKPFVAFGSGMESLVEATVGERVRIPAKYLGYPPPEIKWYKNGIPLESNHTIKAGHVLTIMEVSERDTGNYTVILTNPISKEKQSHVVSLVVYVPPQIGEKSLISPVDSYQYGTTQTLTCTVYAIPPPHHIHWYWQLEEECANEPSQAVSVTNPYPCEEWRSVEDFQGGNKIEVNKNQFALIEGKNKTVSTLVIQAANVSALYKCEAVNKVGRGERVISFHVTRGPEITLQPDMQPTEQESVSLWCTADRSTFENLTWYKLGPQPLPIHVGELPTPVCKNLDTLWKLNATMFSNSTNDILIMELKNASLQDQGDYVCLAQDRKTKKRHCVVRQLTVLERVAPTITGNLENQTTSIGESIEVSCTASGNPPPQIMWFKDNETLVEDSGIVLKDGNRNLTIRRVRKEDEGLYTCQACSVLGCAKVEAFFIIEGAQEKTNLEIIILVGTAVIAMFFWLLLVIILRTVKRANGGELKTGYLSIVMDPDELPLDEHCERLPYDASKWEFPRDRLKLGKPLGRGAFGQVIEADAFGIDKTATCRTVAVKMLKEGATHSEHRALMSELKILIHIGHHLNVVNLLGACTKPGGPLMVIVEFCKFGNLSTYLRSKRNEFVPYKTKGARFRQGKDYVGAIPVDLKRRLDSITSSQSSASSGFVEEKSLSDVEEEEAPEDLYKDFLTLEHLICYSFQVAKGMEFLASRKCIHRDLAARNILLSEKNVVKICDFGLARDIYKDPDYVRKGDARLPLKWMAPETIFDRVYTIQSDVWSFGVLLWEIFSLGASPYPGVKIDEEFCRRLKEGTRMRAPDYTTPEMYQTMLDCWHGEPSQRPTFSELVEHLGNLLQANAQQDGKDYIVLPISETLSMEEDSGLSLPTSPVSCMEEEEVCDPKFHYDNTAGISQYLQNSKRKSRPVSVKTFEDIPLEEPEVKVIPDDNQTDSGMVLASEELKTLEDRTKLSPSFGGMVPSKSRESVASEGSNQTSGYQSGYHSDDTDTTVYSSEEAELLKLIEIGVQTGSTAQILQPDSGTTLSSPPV
Experimental for VEGFR: HUVEC-C cells (Human Umbilical Vein Endothelial Cells from ATCC) were plated at 6×10^4 cells/well in 24 w microplates and grown adherent in medium F12K+0.1 mg/ml Heparin+0.05 mg/ml ECGS+10% FBS at 37° C. with 5% CO2. After 24 h, medium was removed and starvation was induced overnight in medium F12K+0.1 mg/ml Heparin+0.5% FBS (medium starvation). At the end of incubation, treatment of cells was performed by medium replacement and by adding fresh medium starvation containing or not diluent (DMSO 0.1% final concentration), or test compound (range 10^−8 M-10^−5 M). After 1 hour, VEGF stimuli (50 ng/ml final concentration) was added to each sample, with the exception of “basal-no stimulus” sample; plate was then incubated for 5 min at 37° C. with 5% CO2. At the end of the incubation, the medium was removed and cellular lysates, obtained by adding M-PER lysis/Protease/Phosphatase inhibitors cocktail. Then, lysates were transferred into Eppendorf tubes, sonicated and stored at −80° C.
Lysates were analyzed by Western blot for VEGFR phosphorylation (Tyrosine 1175) and total receptor amount determination. Densitometric analysis of sample lanes were performed by ImageQuant TL software (GE Healthcare Life Sciences). Each sample value was normalized by respective actin; resulting data were used to calculate inhibitory effect of compounds with respect to stimuli control (absence of inhibitor).

Broadly, the IC50 is the concentration at which inhibition is half-maximal. Consider `Cc1ccc(NC(=O)c2cccc(C(F)(F)F)c2)cc1CCc1cc(Nc2cnccn2)[nH]n1` [Compound 3, N-(4-methyl-3-(2-(5-(pyrazin-2-ylamino)-1H-pyrazol-3-yl)ethyl)phenyl)-3-(trifluoromethyl)benzamide], for which the IC50 is above 10000 nM at AurA; 477 nM with MMP13; 2 nM with IL-1β; 131 nM on human FynB (read-out: Inhibition of FynB-induced Tau(Y18)-phosphorylation IC50, after 6 hours of treatment); below 250 nM in the series on NF-kB (Mus musculus, JB6 Cl 41-5a); 236 nM in the series on NF-kB. For the same molecule, the IC50 with IL-6 was 18 nM; in the series on COX2 it was 187 nM; against CDK2 it was above 10000 nM. The “Effect on Tau-protein total amount” value at human FynB is given as “Moderate not significant effect”. Also, at human FynB (after 24 hours of treatment), the “Mean percentage of inhibition of Tau(Y18)-phosphorylation” value is reported as 95%. Also, the “Inhibitory activity on VEGFR-phosphorylation at Y1175 residue” value at VEGFR is “complete inhibitory activity”. For the same molecule, in series [1] (48 h), the “First toxic concentration at 48 h in rat primary chondrocytes” value stood at 3 µM. Also, the “First toxic concentration at 24 h” value in series [1] (rat primary chondrocytes, 24 h) was found to be 10 µM.

The record behind these values is patent US12509446B2, “FYN and VEGFR2 kinase inhibitors” (ROTTAPHARM BIOTECH S.R.L., priority 2019, dated 2025).
